Data on 32 compounds can be found in ChEMBL document CHEMBL1126052, “2-Carboxytetrahydroquinolines. Conformational and stereochemical requirements for antagonism of the glycine site on the NMDA receptor” (J Med Chem, 1992).

The structures appear in SMILES notation.

The target in the test is Glutamate NMDA receptor. The test is described as follows: Concentration required to inhibit 50% of the specific binding of [3H]glycine to NMDA receptor prepared from rat cerebral cortex and hippocampus. Format: tissue-based.
Regarding `O=C(O)[C@@H]1C[C@H](C(=O)O)c2c(Cl)cc(Cl)cc2N1`, the IC50 (usually the concentration at which inhibition is half-maximal) stood at 31.4 µM.

As to `COC(=O)[C@H]1C[C@@H](C(=O)O)Nc2cc(Cl)ccc21`, the IC50 is 5.02 µM.

`COC(=O)[C@H]1C[C@H](C(=O)O)Nc2cc(Cl)cc(I)c21` gave an IC50 of 3.09 µM.

`O=C(O)[C@@H]1C[C@H](C(=O)OCc2ccccc2)c2c(Cl)cc(Cl)cc2N1` gave an IC50 of 2.33 µM.

`NC(=O)[C@H]1C[C@@H](C(=O)O)Nc2cc(Cl)cc(Cl)c21` came in with an IC50 of 3.44 µM.

In turn, `O=C(O)C[C@H]1C[C@H](C(=O)O)Nc2cc(Cl)cc(Cl)c21` came in with an IC50 of 0.134 µM.

`O=C(OCc1ccccc1)[C@H]1C[C@H](C(=O)O)Nc2cc(Cl)cc(Cl)c21` had an IC50 of 1.05 µM.

The compound `NC(=O)[C@H]1C[C@H](C(=O)O)Nc2cc(Cl)cc(Cl)c21` showed a 50% inhibitory concentration (IC50) of 0.72 µM.

The compound `Cc1cc(C)c2c(c1)NC(C(=O)O)CC2=O` (configuration not stated) gave an IC50 of 1.86 µM.

Turning to `Cc1noc(C[C@H]2C[C@H](C(=O)O)Nc3cc(Cl)cc(Cl)c32)n1`, the IC50 stood at 2.53 µM.

Take `COC(=O)C[C@H]1C[C@H](C(=O)O)Nc2cc(Cl)cc(Cl)c21`: the IC50 was 0.603 µM.

`Cc1cc(C)c2c(c1)N[C@@H](C(=O)O)[C@@H](C)C2=O` showed an IC50 of 13.7 µM.

Take `O=C(O)C1CCc2c(Cl)cc(Cl)cc2N1` (configuration not stated): the IC50 came out at 6.39 µM.

`COC(=O)[C@H]1C[C@@H](C(=O)O)Nc2cccc(Cl)c21` came in with an IC50 of 26.1 µM.

The compound `O=C1CC(C(=O)O)Nc2cc(Cl)ccc21` (configuration not stated) showed an IC50 of 2.36 µM.

`O=C1CC(C(=O)O)Nc2cccc(Cl)c21` (configuration not stated) had an IC50 of 6.96 µM.

In turn, `O=C(O)C[C@H]1C[C@@H](C(=O)O)Nc2cc(Cl)cc(Cl)c21` showed an IC50 of 15 µM.

With `O=C1CC(C(=O)O)Nc2cc(I)cc(Cl)c21` (configuration not stated), the 50% inhibitory concentration (IC50) was determined as 3.84 µM.

Take `Cc1cc(C)c2c(c1)N[C@@H](C(=O)O)[C@H](C)C2=O`: the IC50 is greater than 100 µM.

`O=C1CC(C(=O)O)Nc2ccccc21` (configuration not stated): the IC50 is greater than 100 µM.

`O=C1CC(C(=O)O)Nc2cc(Cl)cc(Cl)c21` (configuration not stated) displayed a half-inhibitory concentration (IC50) of 2.31 µM.

The compound `COC(=O)[C@H]1C[C@H](C(=O)O)Nc2cc(Br)cc(Br)c21` yielded a half-inhibitory concentration (IC50) of 2.89 µM.

The compound `COC(=O)[C@H]1C[C@H](C(=O)O)Nc2cc(Cl)cc(Cl)c21` gave an IC50 of 2.47 µM.

In the case of `O=C(O)[C@H]1C[C@H](C(=O)O)Nc2cc(Cl)cc(Cl)c21`, the IC50 is 20 µM.

Consider `COC(=O)[C@H]1C[C@H](C(=O)O)Nc2cc(Cl)ccc21`, for which the half-inhibitory concentration (IC50) is 16.9 µM.

In turn, `O=C(O)c1cc(C(=O)O)c2c(Cl)cc(Cl)cc2n1` yielded a concentration for half-maximal inhibition (IC50) greater than 100 µM.

Regarding `COC(=O)[C@H]1C[C@H](C(=O)O)Nc2cccc(Cl)c21`, the IC50 was 176 µM.

On to `COC(=O)[C@H]1C[C@@H](C(=O)O)Nc2cc(Cl)cc(I)c21`, for which the IC50 worked out at 4.18 µM.

Compound `COC(=O)[C@H]1C[C@@H](C(=O)O)Nc2cc(Br)cc(Br)c21` had an IC50 of 2.05 µM.

In turn, `COC(=O)[C@H]1C[C@@H](C(=O)O)Nc2cc(Cl)cc(Cl)c21` showed an IC50 of 1.21 µM.

With `O=C1CC(C(=O)O)Nc2cc(Cl)cc(I)c21` (configuration not stated), the IC50 was 0.36 µM.

On to `O=C1CC(C(=O)O)Nc2cc(Br)cc(Br)c21` (configuration not stated), for which the half-maximal inhibitory concentration (IC50) is 1.29 µM.
